Measurements from paper PMC4207771, “Identification and Characterization of Novel Renal Sensory Receptors” (PLoS ONE, 2014).

The compounds below were run against T1, Olfr691 (Mus musculus, UniProt Q8VGW5) (assay: dual-luciferase (cAMP/CREB reporter) ligand screen, Olfr691 in HEK293T cells). Settings: not given.
T1 construct: Lucy (N); expressed in transfected cells; host or cells: HEK293T, co-transfected with RTP1S
T1 sequence (Q8VGW5 1-322): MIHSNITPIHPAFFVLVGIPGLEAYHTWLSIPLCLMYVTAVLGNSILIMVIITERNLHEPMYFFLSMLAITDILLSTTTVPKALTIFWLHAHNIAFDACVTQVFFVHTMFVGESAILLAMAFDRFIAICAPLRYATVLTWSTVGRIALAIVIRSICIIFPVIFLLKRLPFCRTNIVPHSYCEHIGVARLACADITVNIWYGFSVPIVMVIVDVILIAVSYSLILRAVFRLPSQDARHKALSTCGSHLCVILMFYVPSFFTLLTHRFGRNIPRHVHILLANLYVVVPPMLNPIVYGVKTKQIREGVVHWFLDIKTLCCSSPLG
Type: cell-based

Row | SMILES | Olfr691 response (in words)
1 | O=C(O)c1ccccc1 [benzoate] | induced Olfr691 responses

Same assay, conditions: HEK-293T, 4 h; 0.5 mM ligand; normalized to the response of Olfr691 to the strongest ligand, 4-pentenoate

Row | SMILES | Relative response (% of 4-pentenoate response) at 500 µM
2 | O=C(O)c1ccccc1 [benzoate] | 34 ± 1%
3 | C=CCCC(=O)O [4-pentenoic acid] | 100 ± 10.6%

Same assay, conditions: Olfr691 co-expressed with RTP1S in HEK293T cells; 10 µM to 7.5 mM

Row | SMILES | EC50
4 | C=CCCC(=O)O [4-pentenoic acid] | 901 µM

Same assay, conditions: chemicals tested individually, screened at 500uM (* also at 100uM)

Row | SMILES | Olfr691 response in dual-luciferase assay
5 | C=CC(C)(O)CCC=C(C)CCC=C(C)C (mixture of isomers) [nerolidol] | -
6 | CC(O)C(=O)O (centres unmarked) [lactic acid] | -
7 | C[N+](C)(C)[O-] [Trimethylamine N-oxide] | -
8 | O=C(O)c1ccccc1 [benzoate] | +
9 | Cc1cncc(C)n1 [2,6-Dimethylpyrazine] | -
10 | SCCCCCCS [1,6-hexanedithiol] | -
11 | CCCCCC(=O)CC [3-octanone] | -
12 | O=C(O)CCC(=O)O [Succinate] | -
13 | CCC(C)S (centres unmarked) [1-methyl-1-propanethiol] | -
14 | CC(C)=CCC/C(C)=C/CO [Geraniol] | -
15 | CCOC(=O)c1ccccc1 [ethyl benzoate] | -
16 | CCCCCCCCC=O [nonanal] | -
17 | O=C/C=C/c1ccccc1 [cinnamaldehyde] | -
18 | C=C(C)C1CC=C(C)C(=O)C1 (centres unmarked) [Carvone] | -
19 | O=C(O)CCCCCCCCC(=O)O [sebacic acid] | -
20 | O=C(O)CC(=O)O [Malonate] | -
21 | Fc1ccc(F)c(F)c1 [1,2,4 trifluorobenzene] | -
22 | C=CCc1ccc(O)c(OC)c1 [eugenol] | -
23 | C=C(C)[C@@H]1CC[C@@H](C)C(=O)C1 [(+)Dihydrocarvone] | -
24 | C=CCCC(=O)O [4-pentenoic acid] | +
25 | CC(=O)O [acetic acid] | -

Same assay, conditions: luciferase assay, co-expressed with RTP1S

Row | SMILES | Olfr691 response (in words)
26 | CC(=O)O [acetic acid] | not including

Same assay, conditions: luciferase assay, co-expressed with RTP1S; listed as 4-Pentenoate

Row | SMILES | Olfr691 response (in words)
27 | C=CCCC(=O)O [4-pentenoic acid] | induced the strongest response

Same assay, conditions: luciferase assay, co-expressed with RTP1S; listed as 4-pentenoate

Row | SMILES | Olfr691 response (in words)
28 | C=CCCC(=O)O [4-pentenoic acid] | induced the strongest cAMP responses at all doses

What follows are compounds tested on Olfr545 (assay: dual-luciferase (cAMP/CREB reporter) ligand screen, Olfr545 in HEK293T cells). Settings: chemicals tested individually, screened at 500uM (* also at 100uM).
Type: cell-based, mouse
Set-up: key to Olfr545 response in dual-luciferase assay: ‘+’ or ‘–‘ in each column indicates if the olfactory receptor responded or had no effect to that specific chemical; -: ‘+’ or ‘–‘ in each column indicates if the olfactory receptor responded or had no effect to that specific chemical

Row | SMILES | Olfr545 response in dual-luciferase assay
29 | C=CC(C)(O)CCC=C(C)CCC=C(C)C (mixture of isomers) [nerolidol] | -
30 | CC(O)C(=O)O (centres unmarked) [lactic acid] | -
31 | C[N+](C)(C)[O-] [Trimethylamine N-oxide] | -
32 | O=C(O)c1ccccc1 [benzoate] | -
33 | Cc1cncc(C)n1 [2,6-Dimethylpyrazine] | -
34 | SCCCCCCS [1,6-hexanedithiol] | -
35 | CCCCCC(=O)CC [3-octanone] | -
36 | O=C(O)CCC(=O)O [Succinate] | -
37 | CCC(C)S (centres unmarked) [1-methyl-1-propanethiol] | -
38 | CC(C)=CCC/C(C)=C/CO [Geraniol] | -
39 | CCOC(=O)c1ccccc1 [ethyl benzoate] | -
40 | CCCCCCCCC=O [nonanal] | -
41 | O=C/C=C/c1ccccc1 [cinnamaldehyde] | -
42 | C=C(C)C1CC=C(C)C(=O)C1 (centres unmarked) [Carvone] | -
43 | O=C(O)CCCCCCCCC(=O)O [sebacic acid] | -
44 | O=C(O)CC(=O)O [Malonate] | -
45 | Fc1ccc(F)c(F)c1 [1,2,4 trifluorobenzene] | -
46 | C=CCc1ccc(O)c(OC)c1 [eugenol] | -
47 | C=C(C)[C@@H]1CC[C@@H](C)C(=O)C1 [(+)Dihydrocarvone] | -
48 | C=CCCC(=O)O [4-pentenoic acid] | -
49 | CC(=O)O [acetic acid] | -

Same assay, conditions: luciferase assay

Row | SMILES | Olfr545 response (in words)
50 | O=C(O)CCCCCCCCC(=O)O [sebacic acid] | did not induce a response

These compounds were tested on Olfr99 (assay: dual-luciferase (cAMP/CREB reporter) ligand screen, Olfr99 in HEK293T cells). Settings: chemicals tested individually, screened at 500uM (* also at 100uM).
Type: cell-based, mouse
Set-up: key: ‘+’ or ‘–‘ in each column indicates if the olfactory receptor responded or had no effect to that specific chemical; -: ‘+’ or ‘–‘ in each column indicates if the olfactory receptor responded or had no effect to that specific chemical

Row | SMILES | Olfr99 response in dual-luciferase assay
51 | C=CC(C)(O)CCC=C(C)CCC=C(C)C (mixture of isomers) [nerolidol] | -
52 | CC(O)C(=O)O (centres unmarked) [lactic acid] | -
53 | C[N+](C)(C)[O-] [Trimethylamine N-oxide] | -
54 | O=C(O)c1ccccc1 [benzoate] | -
55 | Cc1cncc(C)n1 [2,6-Dimethylpyrazine] | -
56 | SCCCCCCS [1,6-hexanedithiol] | -
57 | CCCCCC(=O)CC [3-octanone] | -
58 | O=C(O)CCC(=O)O [Succinate] | -
59 | CCC(C)S (centres unmarked) [1-methyl-1-propanethiol] | -
60 | CC(C)=CCC/C(C)=C/CO [Geraniol] | -
61 | CCOC(=O)c1ccccc1 [ethyl benzoate] | -
62 | CCCCCCCCC=O [nonanal] | -
63 | O=C/C=C/c1ccccc1 [cinnamaldehyde] | -
64 | C=C(C)C1CC=C(C)C(=O)C1 (centres unmarked) [Carvone] | -
65 | O=C(O)CCCCCCCCC(=O)O [sebacic acid] | -
66 | O=C(O)CC(=O)O [Malonate] | -
67 | Fc1ccc(F)c(F)c1 [1,2,4 trifluorobenzene] | -
68 | C=CCc1ccc(O)c(OC)c1 [eugenol] | -
69 | C=C(C)[C@@H]1CC[C@@H](C)C(=O)C1 [(+)Dihydrocarvone] | -
70 | C=CCCC(=O)O [4-pentenoic acid] | -
71 | CC(=O)O [acetic acid] | -

What follows are compounds tested against T2, Olfr31 (Mus musculus, UniProt Q3KPA7) (assay: dual-luciferase (cAMP/CREB reporter) ligand screen, Olfr31 in HEK293T cells). Settings: chemicals tested individually, screened at 500uM (* also at 100uM).
T2 construct: expressed in transfected cells; host or cells: HEK293T, co-transfected with RTP1S
T2 sequence (Q3KPA7 1-317): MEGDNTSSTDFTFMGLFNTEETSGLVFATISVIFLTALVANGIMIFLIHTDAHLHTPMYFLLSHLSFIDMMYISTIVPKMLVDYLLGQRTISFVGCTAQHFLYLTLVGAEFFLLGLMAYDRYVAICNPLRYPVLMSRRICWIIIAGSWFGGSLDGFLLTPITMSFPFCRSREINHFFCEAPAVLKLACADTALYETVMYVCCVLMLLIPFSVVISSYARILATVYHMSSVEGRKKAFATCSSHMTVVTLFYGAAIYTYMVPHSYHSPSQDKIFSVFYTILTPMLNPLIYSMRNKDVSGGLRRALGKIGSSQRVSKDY
Type: cell-based

Row | SMILES | Olfr31 response in dual-luciferase assay
72 | C=CC(C)(O)CCC=C(C)CCC=C(C)C (mixture of isomers) [nerolidol] | -
73 | CC(O)C(=O)O (centres unmarked) [lactic acid] | -
74 | C[N+](C)(C)[O-] [Trimethylamine N-oxide] | -
75 | O=C(O)c1ccccc1 [benzoate] | -
76 | Cc1cncc(C)n1 [2,6-Dimethylpyrazine] | -
77 | SCCCCCCS [1,6-hexanedithiol] | -
78 | CCCCCC(=O)CC [3-octanone] | -
79 | O=C(O)CCC(=O)O [Succinate] | -
80 | CCC(C)S (centres unmarked) [1-methyl-1-propanethiol] | -
81 | CC(C)=CCC/C(C)=C/CO [Geraniol] | -
82 | CCOC(=O)c1ccccc1 [ethyl benzoate] | -
83 | CCCCCCCCC=O [nonanal] | -
84 | O=C/C=C/c1ccccc1 [cinnamaldehyde] | -
85 | C=C(C)C1CC=C(C)C(=O)C1 (centres unmarked) [Carvone] | -
86 | O=C(O)CCCCCCCCC(=O)O [sebacic acid] | -
87 | O=C(O)CC(=O)O [Malonate] | -
88 | Fc1ccc(F)c(F)c1 [1,2,4 trifluorobenzene] | -
89 | C=CCc1ccc(O)c(OC)c1 [eugenol] | -
90 | C=C(C)[C@@H]1CC[C@@H](C)C(=O)C1 [(+)Dihydrocarvone] | -
91 | C=CCCC(=O)O [4-pentenoic acid] | -
92 | CC(=O)O [acetic acid] | -

What follows are compounds tested on Olfr693 (assay: dual-luciferase (cAMP/CREB reporter) ligand screen, Olfr693 in HEK293T cells). Settings: chemicals tested individually, screened at 500uM (* also at 100uM).
Type: cell-based, mouse
Set-up: key: ‘+’ or ‘–‘ in each column indicates if the olfactory receptor responded or had no effect to that specific chemical; -: ‘+’ or ‘–‘ in each column indicates if the olfactory receptor responded or had no effect to that specific chemical

Row | SMILES | Olfr693 response in dual-luciferase assay
93 | C=CC(C)(O)CCC=C(C)CCC=C(C)C (mixture of isomers) [nerolidol] | -
94 | CC(O)C(=O)O (centres unmarked) [lactic acid] | -
95 | C[N+](C)(C)[O-] [Trimethylamine N-oxide] | -
96 | O=C(O)c1ccccc1 [benzoate] | -
97 | Cc1cncc(C)n1 [2,6-Dimethylpyrazine] | -
98 | SCCCCCCS [1,6-hexanedithiol] | -
99 | CCCCCC(=O)CC [3-octanone] | -
100 | O=C(O)CCC(=O)O [Succinate] | -
101 | CCC(C)S (centres unmarked) [1-methyl-1-propanethiol] | -
102 | CC(C)=CCC/C(C)=C/CO [Geraniol] | -
103 | CCOC(=O)c1ccccc1 [ethyl benzoate] | -
104 | CCCCCCCCC=O [nonanal] | -
105 | O=C/C=C/c1ccccc1 [cinnamaldehyde] | -
106 | C=C(C)C1CC=C(C)C(=O)C1 (centres unmarked) [Carvone] | -
107 | O=C(O)CCCCCCCCC(=O)O [sebacic acid] | -
108 | O=C(O)CC(=O)O [Malonate] | -
109 | Fc1ccc(F)c(F)c1 [1,2,4 trifluorobenzene] | -
110 | C=CCc1ccc(O)c(OC)c1 [eugenol] | -
111 | C=C(C)[C@@H]1CC[C@@H](C)C(=O)C1 [(+)Dihydrocarvone] | -
112 | C=CCCC(=O)O [4-pentenoic acid] | -
113 | CC(=O)O [acetic acid] | -
